Measured values as given in the CheMixHub viscosity set.
± gives the uncertainty stated by the source.

Assay: xn = mol fraction of the nth substance listed

COCCOCCOCCOCCOC + CCC(C)O
viscosity [mPa·s]
Details	298.15 K	308.15 K	318.15 K	323.15 K
101 kPa, x1 = 0.0018	3.082 ± 0.048	2.157 ± 0.034	1.554 ± 0.025	–
101 kPa, x1 = 0.0046	3.032 ± 0.047	2.132 ± 0.034	1.544 ± 0.025	–
101 kPa, x1 = 0.0146	2.91 ± 0.045	2.069 ± 0.032	1.515 ± 0.024	–
101 kPa, x1 = 0.0257	2.787 ± 0.043	2.024 ± 0.032	1.493 ± 0.024	–
101 kPa, x1 = 0.0738	2.439 ± 0.038	1.834 ± 0.029	1.408 ± 0.023	–
101 kPa, x1 = 0.0988	–	1.777 ± 0.028	1.368 ± 0.022	–
101.3 kPa, x2 = 0.5011	–	–	–	1.495 ± 0.018
101.3 kPa, x2 = 0.6997	–	–	1.445 ± 0.017	–

COCCOCCOCCOCCOC + CCCC(C)O
viscosity [mPa·s], 101 kPa
Details	x1 = 0.0055	x1 = 0.0094	x1 = 0.0147	x1 = 0.0256	x1 = 0.0397	x1 = 0.0606	x1 = 0.0791	x1 = 0.0929	x1 = 0.1008
298.15 K	3.301 ± 0.058	3.26 ± 0.057	3.223 ± 0.057	3.071 ± 0.054	2.91 ± 0.051	2.75 ± 0.048	2.641 ± 0.046	2.58 ± 0.045	2.55 ± 0.045
308.15 K	2.291 ± 0.041	2.274 ± 0.041	2.25 ± 0.04	2.203 ± 0.039	2.117 ± 0.038	2.046 ± 0.036	1.977 ± 0.035	1.94 ± 0.034	1.91 ± 0.034
318.15 K	1.658 ± 0.03	1.638 ± 0.03	1.631 ± 0.03	1.622 ± 0.029	1.575 ± 0.029	1.533 ± 0.028	1.524 ± 0.027	1.497 ± 0.027	1.48 ± 0.027

C=CC(=O)OCC + CCCCC(C)O
viscosity [mPa·s], 101 kPa
Details	298.15 K	308.15 K
x1 = 0.05505	3.659 ± 0.029	2.636 ± 0.025
x1 = 0.09982	3.336 ± 0.026	2.426 ± 0.023
x1 = 0.1555	2.973 ± 0.023	2.188 ± 0.02
x1 = 0.1998	2.712 ± 0.021	2.015 ± 0.019
x1 = 0.2555	2.417 ± 0.019	1.817 ± 0.017
x1 = 0.2999	2.205 ± 0.017	1.673 ± 0.015
x1 = 0.3554	1.965 ± 0.015	1.509 ± 0.014
x1 = 0.3999	1.793 ± 0.014	1.389 ± 0.013
x1 = 0.4555	1.598 ± 0.013	1.253 ± 0.012
x1 = 0.4999	1.458 ± 0.012	1.154 ± 0.011
x1 = 0.5556	1.299 ± 0.011	1.04 ± 0.01
x1 = 0.5999	1.185 ± 0.01	0.958 ± 0.009
x1 = 0.6554	1.056 ± 0.009	0.864 ± 0.009
x1 = 0.6995	0.964 ± 0.009	0.797 ± 0.008
x1 = 0.7554	0.859 ± 0.008	0.718 ± 0.008
x1 = 0.7999	0.783 ± 0.008	0.661 ± 0.008
x1 = 0.8555	0.698 ± 0.008	0.596 ± 0.007
x1 = 0.8999	0.637 ± 0.007	0.549 ± 0.007
x1 = 0.9555	0.568 ± 0.007	0.495 ± 0.007
